Test results from ChEMBL document CHEMBL1146743, “Three new cyclostellettamines, which inhibit histone deacetylase, from a marine sponge of the genus Xestospongia” (Bioorg Med Chem Lett, 2004).

How the values were obtained:
[1] = system: 3Y1 cell line; test: Inhibitory activity against rat fibroblast (3Y1) cell line; type: functional, cell-based
[2] = molecular target: Histone deacetylase; test: Inhibitory activity against histone deacetylase (HDAC); type: protein assay, Homo sapiens
[3] = system: HeLa; test: Cytotoxicity against human cervix carcinoma (HeLa) cell line; type: functional, cell-based
[4] = system: P388; test: Cytotoxicity against mouse leukemia (P388) cell line; type: functional, cell-based

| SMILES | IC50 [1] | IC50 [2] | IC50 [3] | IC50 [4] |
| --- | --- | --- | --- | --- |
| C1=C/CCCCCC[n+]2cccc(c2)CCCCCCCCCCCCC[n+]2cccc(c2)CCCCCC/1.O=C([O-])C(F)(F)F.O=C([O-])C(F)(F)F | 3200 nM | 30000 nM | 1800 nM | 1300 nM |
| C1=C/CCCC[n+]2cccc(c2)CCCCCCCCCCCC[n+]2cccc(c2)CCCCCC/1.O=C([O-])C(F)(F)F.O=C([O-])C(F)(F)F | 7200 nM | 61000 nM | 1800 nM | 2100 nM |
| C1=C/CCCCCC[n+]2cccc(c2)CCCCCCCCCCCC[n+]2cccc(c2)CCCCCC/1.O=C([O-])C(F)(F)F.O=C([O-])C(F)(F)F | 4300 nM | 17000 nM | 600 nM | 1300 nM |
| C1=C/CCC[n+]2cccc(c2)CCCCCCCCCCCC[n+]2cccc(c2)CCCCCC/1.O=C([O-])C(F)(F)F.O=C([O-])C(F)(F)F | 11000 nM | 80000 nM | 2800 nM | 2700 nM |
